Test results from patent US9718804B2, “GSK-3 inhibitors” (BRISTOL-MYERS SQUIBB COMPANY, priority 2013, dated 2017).
Like-named read-outs stand apart in the source and are kept apart here.

Columns and labels:
[1] = target: GSK3β (Homo sapiens, UniProt P49841); assay: GSK3β kinase assay (Caliper LabChip, fluoresceinated peptide substrate); assay type: biochemical
Procedure, shortened: (§1)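 Reaction: 20 h, room temperature. Quench: 35 mM EDTA. Detection: substrate/product separation by chip electrophoresis. Analysis: eleven concentrations, non-linear regression to IC50.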

[2] = target: GSK3α (Homo sapiens, UniProt P49840); assay: GSK3α kinase assay (Caliper LabChip, fluoresceinated peptide substrate); assay type: biochemical
Sequence of GSK3α (P49840 whole entry, species assumed): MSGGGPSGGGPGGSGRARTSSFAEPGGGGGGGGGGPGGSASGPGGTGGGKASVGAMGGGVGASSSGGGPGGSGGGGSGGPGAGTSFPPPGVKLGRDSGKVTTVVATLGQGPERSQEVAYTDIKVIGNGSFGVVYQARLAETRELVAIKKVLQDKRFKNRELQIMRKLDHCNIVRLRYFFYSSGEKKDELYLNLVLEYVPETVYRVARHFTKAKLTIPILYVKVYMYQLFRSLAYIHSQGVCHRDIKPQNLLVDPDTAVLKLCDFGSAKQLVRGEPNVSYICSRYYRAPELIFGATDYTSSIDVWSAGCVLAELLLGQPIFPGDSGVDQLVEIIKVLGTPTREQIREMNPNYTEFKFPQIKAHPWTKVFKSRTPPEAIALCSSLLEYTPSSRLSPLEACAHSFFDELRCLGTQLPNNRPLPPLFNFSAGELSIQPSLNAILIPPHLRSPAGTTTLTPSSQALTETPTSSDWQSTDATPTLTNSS
Procedure, shortened: as §1

[3] = test system: pTau; assay: pTau assay (no method described); assay type: cell-based
[4] = first value of the cell, 250 pM enzyme, 20 uM ATP, 20 hours at room temperature, read-out: GSK3β/α (nM): GSK3β IC50

Sequence of GSK3β (P49841 whole entry, species assumed): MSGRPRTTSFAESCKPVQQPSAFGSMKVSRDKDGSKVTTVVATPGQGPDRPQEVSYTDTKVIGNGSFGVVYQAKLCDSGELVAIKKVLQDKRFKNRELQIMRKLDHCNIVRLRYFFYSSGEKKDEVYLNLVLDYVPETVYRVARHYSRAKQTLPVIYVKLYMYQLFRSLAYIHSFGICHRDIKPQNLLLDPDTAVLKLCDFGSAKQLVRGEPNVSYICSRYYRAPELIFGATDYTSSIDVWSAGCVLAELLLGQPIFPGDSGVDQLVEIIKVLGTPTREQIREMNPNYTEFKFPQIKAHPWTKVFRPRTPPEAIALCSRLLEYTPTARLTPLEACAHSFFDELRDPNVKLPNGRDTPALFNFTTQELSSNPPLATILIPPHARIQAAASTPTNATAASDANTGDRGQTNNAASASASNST

Compound	IC50 [1, 4]	IC50 [2]	IC50 [3]	IC50 [1]
O=C(Nc1cnc(F)cc1OCC(F)F)c1ccnc(Nc2ccc(F)cn2)c1 [Example 114, N-(4-(2,2-Difluoroethoxy)-6-fluoropyridin-3-yl)-2-((5-fluoropyridin-2-yl)amino)isonicotinamide]	4.4 nM	1.5 nM	220 nM	
O=C(Nc1cnccc1-c1ccccc1)c1ccnc(Nc2cc3ccccc3cn2)c1 [Example 115, 2-(Isoquinolin-3-ylamino)-N-(4-phenylpyridin-3-yl)isonicotinamide]	0.97 nM	0.65 nM	297 nM	
O=C(Nc1cnccc1-c1ccccc1)c1ccnc(Nc2ccc3ccccc3n2)c1 [Example 116, N-(4-Phenylpyridin-3-yl)-2-(quinolin-2-ylamino)isonicotinamide]	7.8 nM	3.9 nM	610 nM	
O=C(Nc1cncc(F)c1-c1ccccc1)c1ccnc(Nc2ccc(C(F)(F)F)cn2)c1 [Example 117, N-(5-Fluoro-4-phenylpyridin-3-yl)-2-((5-(trifluoromethyl)pyridin-2-yl)amino)isonicotinamide]	3 nM	1.4 nM	254 nM	
O=C(Nc1cncc(-n2ccc(C(F)(F)F)n2)c1)c1ccnc(Nc2ccc(C(F)(F)F)cn2)c1 [Example 120, N-(5-(3-(Trifluoromethyl)-1H-pyrazol-1-yl)pyridin-3-yl)-2-((5-(trifluoromethyl)pyridin-2-yl)amino)isonicotinamide]	29 nM	14 nM	1500 nM	
O=C(Nc1cncc(N2CCOCC2)c1)c1ccnc(Nc2ccc(C(F)(F)F)cn2)c1 [Example 121, N-(5-Morpholinopyridin-3-yl)-2-((5-(trifluoromethyl)pyridin-2-yl)amino)isonicotinamide]	25 nM	12 nM	1500 nM	
N#Cc1cnn(-c2cncc(NC(=O)c3ccnc(Nc4cccc(C(F)(F)F)n4)c3)c2)c1 [Example 122, N-(5-(4-Cyano-1H-pyrazol-1-yl)pyridin-3-yl)-2-((6-(trifluoromethyl)pyridin-2-yl)amino)isonicotinamide]	6.9 nM	2.2 nM	2000 nM	
O=C(Nc1cncc(OCC(F)(F)F)c1)c1ccnc(Nc2cccc(C(F)(F)F)n2)c1 [Example 123, N-(5-(2,2,2-Trifluoroethoxy)pyridin-3-yl)-2-((6-(trifluoromethyl)pyridin-2-yl)amino)isonicotinamide]		3.2 nM	520 nM	7.4 nM
O=C(Nc1cncc(OCC2CC2)c1)c1ccnc(Nc2cccc(C(F)(F)F)n2)c1 [Example 124, N-(5-(Cyclopropylmethoxy)pyridin-3-yl)-2-((6-(trifluoromethyl)pyridin-2-yl)amino)isonicotinamide]	9.4 nM	3.5 nM	3600 nM	
CC1(COc2cncc(NC(=O)c3ccnc(Nc4cccc(C(F)(F)F)n4)c3)c2)CC1 [Example 125, N-(5-((1-Methylcyclopropyl)methoxy)pyridin-3-yl)-2-((6-(trifluoromethyl)pyridin-2-yl)amino)isonicotinamide]		3.8 nM	2200 nM	12 nM
CC1CC1COc1cncc(NC(=O)c2ccnc(Nc3cccc(C(F)(F)F)n3)c2)c1 (stereo not drawn) [Example 126, N-(5-((2-Methylcyclopropyl)methoxy)pyridin-3-yl)-2-((6-(trifluoromethyl)pyridin-2-yl)amino)isonicotinamide]	9.7 nM	4.8 nM	3200 nM	
O=C(Nc1cncc(-c2ccccc2F)c1)c1ccnc(Nc2ccc(C(F)(F)F)cn2)c1 [Example 127, N-(5-(2-Fluorophenyl)pyridin-3-yl)-2-((5-(trifluoromethyl)pyridin-2-yl)amino)isonicotinamide]	11 nM	6 nM	1750 nM	
